Assay results taken from patent US6495160B2, “Biphasic multicomponent pharmaceutical dosage forms containing substances able to modify the partitioning of drugs” (Eurand International S.p.A., priority 1997, dated 2002).

Experiment: Apparent partition coefficient (Pm) between oil and water phases
Format: physicochemical
Settings: oily phase Labrafac Hydro, benzyl alcohol 1:1, 24 hours
Experimental: The water volume contained a starting concentration of active principle (C0) which was lower than the solubility of the active principle in each of the two phases. At the end of the experiment, the concentrations of active principle in the water phase (CA) were measured by cromatography (HPLC).

CS(=O)(=O)Nc1ccc([N+](=O)[O-])cc1Oc1ccccc1 [NIME, Nimesulide]
Partition coefficient (Pm) of the Active Principle (NMP 0% in aqueous phase): 1.75
Partition coefficient (Pm) of the Active Principle (NMP 5% in aqueous phase): 36.7
Partition coefficient (Pm) of the Active Principle (NMP 10% in aqueous phase): 63.5
Partition coefficient (Pm) of the Active Principle (NMP 15% in aqueous phase): 98.3
Partition coefficient (Pm) of the Active Principle (NMP 20% in aqueous phase): 29.6
